As usually defined, the solubility is the dissolved amount per volume that the medium holds. Low values mean little dissolved substance, high ones much dissolved substance.

Here are results for one compound from patent US20100016382A1, “PHARMACEUTICAL COMPOSITION” (TAKEDA PHARMACEUTICAL COMPANY LIMITED, priority 2006, published 2010).

The nature of the series: physchem. Type of series: physicochemical. The conditions noted are these: 20 °C, water. As to the method:
Compound A is 2-ethoxy-1-{[2′-(5-oxo-4,5-dihydro-1,2,4-oxadiazol-3-yl)biphenyl-4-yl]methyl}-1H-benzimidazole-7-carboxylic acid (melting point: 191° C., solubility in water at 20° C. of about 0.006 g/L). In the following Examples and Reference Examples, the Japanese Pharmacopoeia 14th Edition or Japanese Pharmaceutical Excipients 2003 compatible products were used as the preparation additives. Of the preparation additives, while magnesium stearate is also the Japanese Pharmacopoeia 14th Edition compatible product, like other preparation additives, it particularly has a stearic acid content ratio of not less than about 90% (Taihei Chemical Industrial Co., Ltd.).

Converted amounts (≈) assume the structure as drawn.

`CCOc1nc2cccc(C(=O)O)c2n1Cc1ccc(-c2ccccc2-c2noc(=O)[nH]2)cc1` [Compound A, 2-ethoxy-1-{[2′-(5-oxo-4,5-dihydro-1,2,4-oxadiazol-3-yl)biphenyl-4-yl]methyl}-1H-benzimidazole-7-carboxylic acid] displayed a solubility of approximately 6 µg/mL (≈ 13.1 µM).
